PubChem BioAssay AID248 (DTP/NCI, 2004)
Where “and” joins values, the source holds several entries; their conditions need not be identical. Identical values can stand only once. Inconclusive results and toxic doses are left out. No stated cut-off is given here; in the data, active means T/C of 150% or more; inactive means T/C below 125%.

Test system: L1210 leukemia ip in BDF1 mice, survival T/C
Assay: NCI In Vivo Anticancer Drug Screen. Data for tumor model L1210 Leukemia (intraperitoneal) in B6D2F1 (BDF1) mice
Conditions: endpoint: mean survival time, higher = longer survival
In short: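 In this screen, tumor-bearing mice given compound are compared to those given vehicle, and their survival values are reported as a treated-to-control quotient.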

[1] = dose: 100.0 mg/kg/injection, schedule: Q01DX001 (ip), vehicle: carboxymethylcellulose (CMC)
[2] = dose: 200.0 mg/kg/injection, schedule: Q01DX001 (ip), vehicle: carboxymethylcellulose (CMC)
[3] = dose: 400.0 mg/kg/injection, schedule: Q01DX001 (ip), vehicle: carboxymethylcellulose (CMC)
[4] = dose: 100.0 mg/kg/injection, schedule: Q04DX003 (ip), vehicle: saline with Tween-80
[5] = dose: 200.0 mg/kg/injection, schedule: Q04DX003 (ip), vehicle: saline with Tween-80
[6] = dose: 100.0 mg/kg/injection, schedule: Q01DX009 (ip), vehicle: other
[7] = dose: 200.0 mg/kg/injection, schedule: Q01DX009 (ip), vehicle: other
[8] = dose: 400.0 mg/kg/injection, schedule: Q04DX003 (ip), vehicle: saline with Tween-80
[9] = dose: 100.0 mg/kg/injection, schedule: Q01DX001 (ip), vehicle: Klucel (hydroxypropylcellulose) (HPC)
[10] = dose: 200.0 mg/kg/injection, schedule: Q01DX001 (ip), vehicle: Klucel (hydroxypropylcellulose) (HPC)
[11] = dose: 100.0 mg/kg/injection, schedule: Q01DX001 (ip), vehicle: saline
[12] = dose: 100.0 mg/kg/injection, schedule: Q01DX009 (ip), vehicle: saline
[13] = dose: 200.0 mg/kg/injection, schedule: Q01DX001 (ip), vehicle: saline
[14] = dose: 200.0 mg/kg/injection, schedule: Q01DX009 (ip), vehicle: saline
[15] = dose: 400.0 mg/kg/injection, schedule: Q01DX001 (ip), vehicle: saline

Measured: T/C

CCC[CH2][Sn](=[S])[CH2]CCC
inactive: dose: 0.69 mg/kg/injection, schedule: Q01DX009 (ip), vehicle: other 98 % of control | dose: 0.78 mg/kg/injection, schedule: Q01DX009 (ip), vehicle: saline 93 % of control | dose: 1.04 mg/kg/injection, schedule: Q01DX009 (ip), vehicle: other 95 % of control | dose: 1.56 mg/kg/injection, schedule: Q01DX009 (ip), vehicle: other 96 % of control | dose: 1.56 mg/kg/injection, schedule: Q01DX009 (ip), vehicle: saline 112 % of control | dose: 2.34 mg/kg/injection, schedule: Q01DX009 (ip), vehicle: other 107 % of control | dose: 3.12 mg/kg/injection, schedule: Q01DX009 (ip), vehicle: saline 114 % of control | dose: 3.13 mg/kg/injection, schedule: Q01DX009 (ip), vehicle: other 105 % of control | dose: 6.25 mg/kg/injection, schedule: Q01DX009 (ip), vehicle: saline 122 % of control | dose: 12.5 mg/kg/injection, schedule: Q01DX009 (ip), vehicle: other 88 % of control | dose: 12.5 mg/kg/injection, schedule: Q04DX003 (ip), vehicle: other 98 % of control | [1] 115 % of control | [2] 102 % of control | [3] 86 % of control

N#CCCC#N (tested in a mixture with another compound)
inactive: [4] 96 % of control | [5] 102 % of control

O=[N+]([O-])c1cccc2ncsc12
inactive: [6] 104 % of control | [7] 107 % of control | dose: 400.0 mg/kg/injection, schedule: Q01DX009 (ip), vehicle: other 104 % of control

CCC(C)(C)c1ccc(Oc2ccccc2)c(N)c1
inactive: [6] 88 % of control | [4] 104 % of control | [7] 100 % of control | [5] 100 % of control | [8] 98 % of control

O=C(O)c1cc(Br)c(-c2c(Br)cc(C(=O)O)cc2[N+](=O)[O-])c([N+](=O)[O-])c1
inactive: dose: 50.0 mg/kg/injection, schedule: Q01DX001 (ip), vehicle: Klucel (hydroxypropylcellulose) (HPC) 95 % of control | [9] 106 % of control | [10] 95 % of control

O=NN(CCCl)C(=O)Nc1cc2c3ccccc3ccc2c2ccccc12
inactive: dose: 177.0 mg/kg/injection, schedule: Q01DX009 (ip), vehicle: carboxymethylcellulose (CMC) 123 % of control

ClCCN(CCCl)c1ccc(C=Nc2ccc(-n3ccnc3)cc2)c(Cl)c1
inactive: dose: 80.0 mg/kg/injection, schedule: Q04DX002 (ip), vehicle: Klucel (hydroxypropylcellulose) (HPC) 95 % of control | dose: 160.0 mg/kg/injection, schedule: Q04DX002 (ip), vehicle: Klucel (hydroxypropylcellulose) (HPC) 102 % of control | dose: 320.0 mg/kg/injection, schedule: Q04DX002 (ip), vehicle: Klucel (hydroxypropylcellulose) (HPC) 98 % of control

Cc1ccc(NC(=O)Oc2ccc(F)cc2Cl)cc1NC(=O)Oc1ccc(F)cc1Cl
inactive: dose: 100.0 mg/kg/injection, schedule: Q01DX009 (ip), vehicle: saline with Tween-80 91 % of control | [4] 95 % of control | dose: 200.0 mg/kg/injection, schedule: Q01DX009 (ip), vehicle: saline with Tween-80 100 % of control | [5] 88 % of control | dose: 400.0 mg/kg/injection, schedule: Q01DX009 (ip), vehicle: saline with Tween-80 86 % of control | [8] 95 % of control

CC1CCCC/C1=N/O (stereo unspecified)
inactive: [11] 100 % of control | [12] 97 % of control | [13] 92 % of control | [14] 105 % of control | [15] 91 % of control | dose: 400.0 mg/kg/injection, schedule: Q01DX009 (ip), vehicle: saline 97 % of control

O=C1C2(Cl)C(Cl)=C(Cl)C1(Cl)C1(Cl)C(Cl)=C(Cl)C(=O)C21Cl (stereo unspecified)
inactive: [9] 102 % of control | [10] 102 % of control | dose: 400.0 mg/kg/injection, schedule: Q01DX001 (ip), vehicle: Klucel (hydroxypropylcellulose) (HPC) 97 % of control

O=S1(=O)C=CCC1
inactive: dose: 50.0 mg/kg/injection, schedule: Q01DX001 (ip), vehicle: carboxymethylcellulose (CMC) 100 % of control | [1] 94 % of control | [12] 96 % of control | dose: 100.0 mg/kg/injection, schedule: Q04DX003 (ip), vehicle: saline 100 % of control | [2] 103 % of control | [14] 102 % of control | dose: 200.0 mg/kg/injection, schedule: Q04DX003 (ip), vehicle: saline 94 % of control | dose: 400.0 mg/kg/injection, schedule: Q04DX003 (ip), vehicle: saline 100 % of control

c1ccc2cc3c(cc2c1)Nc1ccncc1N3
inactive: dose: 12.5 mg/kg/injection, schedule: Q01DX009 (ip), vehicle: saline with Tween-80 106 % of control | dose: 25.0 mg/kg/injection, schedule: Q01DX009 (ip), vehicle: saline with Tween-80 103 % of control | dose: 50.0 mg/kg/injection, schedule: Q01DX009 (ip), vehicle: saline with Tween-80 100 % of control

NC(=O)Cc1csc2ccccc12
inactive: [11] 101 % of control | [13] 106 % of control

COC1(OC)C2C(Cl)=C(Cl)C1(Cl)C(Br)C2c1ccccc1 (stereo unspecified)
inactive: [1] 97 % of control | [2] 92 % of control | [3] 103 % of control

CN(C)C(=O)ON=C1c2ccccc2-c2ccccc21
inactive: [11] 103 % of control | [13] 97 % of control | [15] 103 % of control

CCCC1(c2ccccc2)C(C#N)C(=O)NC(=O)C1C#N (stereo unspecified)
inactive: [11] 101 % of control | [13] 97 % of control

CCOC(=O)Nc1cncc(NC(=O)OCC)n1
inactive: dose: 6.25 mg/kg/injection, schedule: Q01DX009 (ip), vehicle: water 96 % of control | dose: 12.5 mg/kg/injection, schedule: Q01DX009 (ip), vehicle: water 90 % of control | dose: 25.0 mg/kg/injection, schedule: Q01DX009 (ip), vehicle: water 117 % of control and 91 % of control | dose: 50.0 mg/kg/injection, schedule: Q01DX009 (ip), vehicle: water 93 % of control and 91 % of control | dose: 100.0 mg/kg/injection, schedule: Q01DX009 (ip), vehicle: water 96 % of control and 101 % of control | dose: 200.0 mg/kg/injection, schedule: Q01DX009 (ip), vehicle: water 111 % of control

COc1ccc(-c2ccc(OC)c(OC)c2)cc1OC
inactive: [1] 110 % of control | [2] 104 % of control | [3] 110 % of control
